Experimental data reported in ChEMBL document CHEMBL3758158, “Discovery of 2-azetidinone and 1H-pyrrole-2,5-dione derivatives containing sulfonamide group at the side chain as potential cholesterol absorption inhibitors” (Bioorg Med Chem Lett, 2016).
The source made the active and inactive calls. The rule behind the calls is not given here.

Tests used:
[1] = biological target: T1, NPC1-like intracellular cholesterol transporter 1 (Homo sapiens) (UniProt Q9UHC9); assay: Inhibition of niemann pick C1-like protein-1 in human Caco-2 cells assessed as cholesterol uptake at 100 uM after 24 hrs by HPLC analysis; type: cell-based
T1 sequence (whole entry): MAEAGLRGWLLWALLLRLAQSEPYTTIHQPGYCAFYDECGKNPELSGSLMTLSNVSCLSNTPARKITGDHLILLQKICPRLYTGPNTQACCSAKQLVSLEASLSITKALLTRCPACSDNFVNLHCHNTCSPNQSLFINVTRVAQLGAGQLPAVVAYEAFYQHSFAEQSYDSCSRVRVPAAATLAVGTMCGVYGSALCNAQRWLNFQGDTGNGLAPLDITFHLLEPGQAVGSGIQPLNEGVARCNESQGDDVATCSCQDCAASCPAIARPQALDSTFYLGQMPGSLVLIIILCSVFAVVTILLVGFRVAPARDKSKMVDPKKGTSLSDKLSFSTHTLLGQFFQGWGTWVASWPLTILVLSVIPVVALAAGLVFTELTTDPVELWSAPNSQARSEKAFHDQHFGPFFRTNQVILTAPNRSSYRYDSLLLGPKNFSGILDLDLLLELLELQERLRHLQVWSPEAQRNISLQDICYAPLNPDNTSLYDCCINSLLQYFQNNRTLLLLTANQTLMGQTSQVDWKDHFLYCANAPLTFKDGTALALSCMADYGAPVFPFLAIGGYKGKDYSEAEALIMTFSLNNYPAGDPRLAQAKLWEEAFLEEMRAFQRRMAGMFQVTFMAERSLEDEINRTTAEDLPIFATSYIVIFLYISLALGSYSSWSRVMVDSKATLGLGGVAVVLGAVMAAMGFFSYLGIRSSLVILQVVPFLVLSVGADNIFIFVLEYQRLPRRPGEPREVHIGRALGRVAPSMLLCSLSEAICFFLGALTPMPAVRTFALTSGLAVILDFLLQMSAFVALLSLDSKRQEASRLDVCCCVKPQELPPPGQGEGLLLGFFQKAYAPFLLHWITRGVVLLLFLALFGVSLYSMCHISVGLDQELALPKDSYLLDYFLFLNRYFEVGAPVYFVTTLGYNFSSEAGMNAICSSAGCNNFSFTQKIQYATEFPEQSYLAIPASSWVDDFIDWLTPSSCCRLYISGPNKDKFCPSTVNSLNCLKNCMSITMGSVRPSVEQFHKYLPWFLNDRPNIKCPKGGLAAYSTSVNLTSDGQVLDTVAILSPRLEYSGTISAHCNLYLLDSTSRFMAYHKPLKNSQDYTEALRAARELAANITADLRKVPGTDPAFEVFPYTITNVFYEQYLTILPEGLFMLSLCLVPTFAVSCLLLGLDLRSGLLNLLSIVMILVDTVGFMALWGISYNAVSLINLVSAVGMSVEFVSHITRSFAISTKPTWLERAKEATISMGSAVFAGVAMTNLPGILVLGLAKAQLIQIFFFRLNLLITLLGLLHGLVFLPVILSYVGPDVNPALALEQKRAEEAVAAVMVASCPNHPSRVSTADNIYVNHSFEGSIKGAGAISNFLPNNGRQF

[2] = tested on: Hamster; assay: Increase in nitric oxide level in serum of cholesterol fed hamster at 50 mg/kg/day, po administered for 7 days measured on day 7 post last dose; type: functional, organism-based; details: Cricetinae
[3] = Cytotoxicity against human GES-1 cells assessed as cell viability after 48 hrs by MTT assay; type: cell-based, GES1; details: read-out: LC50
[4] = Octanol-water partition coefficient, logP of the compound by HPLC analysis; type: physicochemical
[5] = tested on: Hamster; assay: Decrease in total cholesterol level in serum of cholesterol fed hamster model at 50 mg/kg/day, po administered for 7 days measured on day 7 post last dose; type: functional, Cricetinae; parameters: scale not given: the % may be the effect or the level left
[6] = tested on: Hamster; assay: Decrease in triglyceride level in serum of cholesterol fed hamster model at 50 mg/kg/day, po administered for 7 days measured on day 7 post last dose; type: functional, Cricetinae; parameters: scale not given: the % may be the effect or the level left
[7] = tested on: Hamster; assay: Increase in proportion of high density lipoprotein cholesterol to total cholesterol in serum of cholesterol fed hamster at 50 mg/kg/day, po administered for 7 days measured on day 7 post last dose; type: functional, Cricetinae
[8] = tested on: Hamster; assay: Toxicity in cholesterol fed hamster model assessed as change in body weight at 50 mg/kg/day, po administered for 7 days measured during compound dosing; type: organism-based; details: cricetinae, in vivo, 168 h
[9] = tested on: Hamster; assay: Increase in nitric oxide synthase level in serum of cholesterol fed hamster at 50 mg/kg/day, po administered for 7 days measured on day 7 post last dose; type: functional, organism-based; details: Cricetinae
[10] = tested on: Hamster; assay: Decrease in low density lipoprotein cholesterol level in serum of cholesterol fed hamster model at 50 mg/kg/day, po administered for 7 days measured on day 7 post last dose; type: functional, Cricetinae; parameters: scale not given: the % may be the effect or the level left
[11] = tested on: Hamster; assay: Effect on total cholesterol level in cholesterol fed hamster liver at 50 mg/kg/day, po administered for 7 days measured on day 7 post last dose; type: ADME, organism-based; details: cricetinae, in vivo, 168 h
[12] = tested on: Hamster; assay: Effect on triglyceride level in cholesterol fed hamster liver at 50 mg/kg/day, po administered for 7 days measured on day 7 post last dose; type: ADME, organism-based; details: cricetinae, in vivo, 168 h
[13] = Cytotoxicity against human HEK293 cells assessed as cell viability after 48 hrs by MTT assay; type: cell-based; details: read-out: LC50
[14] = tested on: Hamster; assay: Decrease in free fatty acid level in serum of cholesterol fed hamster model at 50 mg/kg/day, po administered for 7 days measured on day 7 post last dose; type: functional, Cricetinae; parameters: scale not given: the % may be the effect or the level left
[15] = tested on: Hamster; assay: Toxicity in cholesterol fed hamster model assessed as decrease in body weight at 50 mg/kg/day, po administered for 7 days measured for 3 days during compound dosing; type: organism-based; details: cricetinae, in vivo, 72 h

| SMILES | inhibition [1] | CC50 at 48 h [3] [µM] | logP [4] | CC50 at 48 h [13] [µM] | also measured |
| --- | --- | --- | --- | --- | --- |
| Cc1ccc(N2C(=O)[C@H](CCCNS(=O)(=O)c3ccc(OC(F)(F)F)cc3)[C@H]2c2ccc(NS(C)(=O)=O)cc2)cc1 | 41.4% | > 100 | 3.4 | > 100 | Activity [2]: Active; Activity [5]: 25.7%; Activity [6]: 25.3%; Activity [7]: 42.9%; Activity [8]: Non-toxic; Activity [9]: Active; Activity [10]: 17.8%; Activity [11]: Non-toxic; Activity [12]: Non-toxic; Activity [14]: 21.4% |
| CCc1ccc(S(=O)(=O)NCCC[C@H]2C(=O)N(c3ccc(C)cc3)[C@@H]2c2ccc(NS(=O)(=O)c3ccc(C)cc3)cc2)cc1 | Active | 92.9 | 3.4 | 42.9 |  |
| Cc1ccc(N2C(=O)[C@H](CCCNS(=O)(=O)c3ccc(OC(F)(F)F)cc3)[C@H]2c2ccc(NS(=O)(=O)c3ccc(C)cc3)cc2)cc1 | Active | > 100 | 3.4 | > 100 |  |
| O=C1C(c2ccc(O)cc2)=C(c2ccc(F)cc2)C(=O)N1CCCCNS(=O)(=O)c1ccc(OC(F)(F)F)cc1 | Active |  |  |  |  |
| O=C1C(c2ccc(O)cc2)=C(c2ccc(F)cc2)C(=O)N1CCCCNS(=O)(=O)c1ccc(C(F)(F)F)cc1 | Active |  |  |  |  |
| CCc1ccc(S(=O)(=O)NCCC[C@H]2C(=O)N(c3ccc(C)cc3)[C@@H]2c2ccc(NS(C)(=O)=O)cc2)cc1 | Active | > 100 | 3.4 | > 100 |  |
| O=C1[C@H](CC[C@H](O)c2ccc(F)cc2)[C@@H](c2ccc(O)cc2)N1c1ccc(F)cc1 [EZETIMIBE] |  | 61.3 | 3.4 | 54.6 | Activity [5]: 30.2%; Activity [6]: 36%; Activity [7]: 56%; Activity [15]: Toxic; Activity [10]: 24.8%; Activity [14]: 29.5% |
| Cc1ccc(N2C(=O)[C@H](CCCNS(=O)(=O)c3cccs3)[C@H]2c2ccc([N+](=O)[O-])cc2)cc1 | Active |  |  |  |  |
| Cc1ccc(N2C(=O)[C@H](CCCNS(=O)(=O)c3ccc(OC(F)(F)F)cc3)[C@H]2c2ccc([N+](=O)[O-])cc2)cc1 | 47.9% | 56.8 | ≥ 4.4 | > 100 |  |
| CCc1ccc(S(=O)(=O)NCCC[C@H]2C(=O)N(c3ccc(C)cc3)[C@@H]2c2ccc([N+](=O)[O-])cc2)cc1 | Active | > 100 | ≥ 4.4 | > 100 |  |
